Assay: xn = mol fraction of the nth substance listed
Settings: Liquid, Vibrating tube method

CCCCCCCC [octane] + CCCO
Settings | mass density [kg/m3]
313.15 K, 15010 kPa, x2 = 0.8823 | 776.2
313.15 K, 15020 kPa, x2 = 0.1631 | 706.63
313.15 K, 16000 kPa, x2 = 0.1631 | 707.41
313.15 K, 16010 kPa, x2 = 0.4411 | 725.31
313.15 K, 16010 kPa, x2 = 0.7301 | 754.27
313.15 K, 16010 kPa, x2 = 0.8823 | 776.98
313.15 K, 16020 kPa, x2 = 0.2111 | 710.08
313.15 K, 16020 kPa, x2 = 0.3158 | 716.32
313.15 K, 17000 kPa, x2 = 0.8823 | 777.78
313.15 K, 17020 kPa, x2 = 0.1631 | 708.23
313.15 K, 17020 kPa, x2 = 0.2111 | 710.85
313.15 K, 17020 kPa, x2 = 0.3158 | 717.13
313.15 K, 17020 kPa, x2 = 0.4411 | 726.11
313.15 K, 17020 kPa, x2 = 0.7301 | 755.05
313.15 K, 18000 kPa, x2 = 0.1631 | 709.02
313.15 K, 18000 kPa, x2 = 0.4411 | 726.91
313.15 K, 18010 kPa, x2 = 0.2111 | 711.64
313.15 K, 18010 kPa, x2 = 0.3158 | 717.91
313.15 K, 18010 kPa, x2 = 0.8823 | 778.53
313.15 K, 18020 kPa, x2 = 0.7301 | 755.85
313.15 K, 19000 kPa, x2 = 0.3158 | 718.69
313.15 K, 19000 kPa, x2 = 0.7301 | 756.62
313.15 K, 19010 kPa, x2 = 0.2111 | 712.43
313.15 K, 19010 kPa, x2 = 0.4411 | 727.68
313.15 K, 19010 kPa, x2 = 0.8823 | 779.29
313.15 K, 19020 kPa, x2 = 0.1631 | 709.81
313.15 K, 20000 kPa, x2 = 0.2111 | 713.22
313.15 K, 20000 kPa, x2 = 0.4411 | 728.45
313.15 K, 20010 kPa, x2 = 0.1631 | 710.59
313.15 K, 20010 kPa, x2 = 0.3158 | 719.47
313.15 K, 20010 kPa, x2 = 0.7301 | 757.39
313.15 K, 20020 kPa, x2 = 0.8823 | 780.06
323.15 K, 100 kPa, x2 = 0.1631 | 684.56
323.15 K, 100 kPa, x2 = 0.2111 | 687.03
323.15 K, 100 kPa, x2 = 0.3158 | 693.22
323.15 K, 100 kPa, x2 = 0.4411 | 702.44
323.15 K, 100 kPa, x2 = 0.7301 | 731.25
323.15 K, 100 kPa, x2 = 0.8823 | 754.72
323.15 K, 1000 kPa, x2 = 0.8823 | 755.36
323.15 K, 1010 kPa, x2 = 0.3158 | 694.15
323.15 K, 1010 kPa, x2 = 0.4411 | 703
323.15 K, 1010 kPa, x2 = 0.7301 | 732.1
323.15 K, 1020 kPa, x2 = 0.1631 | 685.52
323.15 K, 1020 kPa, x2 = 0.2111 | 688.02
323.15 K, 2000 kPa, x2 = 0.4411 | 703.99
323.15 K, 2010 kPa, x2 = 0.1631 | 686.54
323.15 K, 2010 kPa, x2 = 0.2111 | 689.01
323.15 K, 2010 kPa, x2 = 0.3158 | 695.16
323.15 K, 2010 kPa, x2 = 0.7301 | 733.06
323.15 K, 2020 kPa, x2 = 0.8823 | 756.3
323.15 K, 3000 kPa, x2 = 0.4411 | 704.97
323.15 K, 3010 kPa, x2 = 0.3158 | 696.14
323.15 K, 3010 kPa, x2 = 0.7301 | 734.04
323.15 K, 3010 kPa, x2 = 0.8823 | 757.26
323.15 K, 3020 kPa, x2 = 0.1631 | 687.52
323.15 K, 3020 kPa, x2 = 0.2111 | 690
323.15 K, 4010 kPa, x2 = 0.7301 | 734.99
323.15 K, 4010 kPa, x2 = 0.8823 | 758.2
323.15 K, 4020 kPa, x2 = 0.1631 | 688.52
323.15 K, 4020 kPa, x2 = 0.2111 | 691
323.15 K, 4020 kPa, x2 = 0.3158 | 697.11
323.15 K, 4020 kPa, x2 = 0.4411 | 705.97
323.15 K, 5010 kPa, x2 = 0.1631 | 689.5
323.15 K, 5010 kPa, x2 = 0.7301 | 735.97
323.15 K, 5020 kPa, x2 = 0.2111 | 691.96
323.15 K, 5020 kPa, x2 = 0.3158 | 698.1
323.15 K, 5020 kPa, x2 = 0.4411 | 706.95
323.15 K, 5020 kPa, x2 = 0.8823 | 759.13
323.15 K, 6000 kPa, x2 = 0.7301 | 736.92
323.15 K, 6010 kPa, x2 = 0.1631 | 690.43
323.15 K, 6010 kPa, x2 = 0.2111 | 692.93
323.15 K, 6010 kPa, x2 = 0.4411 | 707.91
323.15 K, 6010 kPa, x2 = 0.8823 | 760.04
323.15 K, 6020 kPa, x2 = 0.3158 | 699.06
323.15 K, 7000 kPa, x2 = 0.1631 | 691.4
323.15 K, 7010 kPa, x2 = 0.2111 | 693.87
323.15 K, 7010 kPa, x2 = 0.4411 | 708.85
323.15 K, 7010 kPa, x2 = 0.7301 | 737.85
323.15 K, 7020 kPa, x2 = 0.3158 | 700.03
323.15 K, 7020 kPa, x2 = 0.8823 | 760.95
323.15 K, 8000 kPa, x2 = 0.1631 | 692.37
323.15 K, 8010 kPa, x2 = 0.3158 | 700.95
323.15 K, 8010 kPa, x2 = 0.4411 | 709.8
323.15 K, 8010 kPa, x2 = 0.7301 | 738.79
323.15 K, 8010 kPa, x2 = 0.8823 | 761.85
323.15 K, 8020 kPa, x2 = 0.2111 | 694.84
323.15 K, 9000 kPa, x2 = 0.7301 | 739.71
323.15 K, 9010 kPa, x2 = 0.4411 | 710.74
323.15 K, 9010 kPa, x2 = 0.8823 | 762.75
323.15 K, 9020 kPa, x2 = 0.1631 | 693.29
323.15 K, 9020 kPa, x2 = 0.2111 | 695.78
323.15 K, 9020 kPa, x2 = 0.3158 | 701.92
323.15 K, 10000 kPa, x2 = 0.1631 | 694.22
323.15 K, 10000 kPa, x2 = 0.7301 | 740.61
323.15 K, 10010 kPa, x2 = 0.2111 | 696.69

— the NIST ThermoML archive (doi:10.1021/acs.jced.8b00554)
